The nature of series [1]: solution stability test of BZM solution by HPLC. It counts as physicochemical. As to conditions: BZM dissolved in DMSO, room temperature, three days. An excerpt: (7) For the solution stability test, a sum of BZM solution is put under a room temperature to be processed with HPLC analysis for three days, as shown in FIG. 12. Consequently, the difference of BZM retention time is 0.64%; the resolution difference is 5.81%; the purity difference is −0.37%; the difference of a linear least square regression slope is −3.18%; and linear correlation coefficients are all greater than 0.9997.

The test system of another series is D2/D3 receptor (D2/D3R). As to conditions: in rats; compared with [^123I] IBZM; cited from earlier work.

For the compound `CCN1CCC[C@H]1CNC(=O)c1c(O)cccc1OC` [BZM, (S)-(-)-2-hydroxy-6-methoxy-N-[(1-ethyl-2-pyrrolidinyl)methyl]benzamide], the “solution stability (in words)” value in series [1] is on record as “good stability”. Besides, the “purity difference (solution stability)” value in series [1] (HPLC analysis) is given as −0.37%. The “bonding to D2/D3 receptor relative to [^123I] IBZM” value in the series on D2/D3 receptor (D2/D3R) is “far small bonding to D2/D3 receptor (D2/D3R) than [^123I] IBZM”.

The values are drawn from patent US20090253209A1, “Method of obtaining BZM purity, quantity of [123I]IBZM labeled ligand and quantity of BZM free ligand” (ATOMIC ENERGY COUNCIL - INSTITUTE OF NUCLEAR ENERGY RESEARCH, priority 2008, published 2009).
